{"source": "paper PMC9980655", "about": "(Journal of medicinal chemistry, 2022)", "key": {"[1]": {"assay": "In vitro metabolic stability in CES1−/− mouse brain homogenate", "type": "in vitro ADME", "details": "for remaining at 1 h, 10 μM: C57BL/6, mouse; for Stability in mouse (% remaining at 1 h) Brain: 10 μM, 37 °C, mean ± std error, n = 3"}, "[2]": {"assay": "In vitro metabolic stability in CES1−/− mouse plasma", "type": "in vitro ADME", "details": "C57BL/6, mouse"}, "[3]": {"assay": "Time-dependent oral PK in CES1−/− mice", "type": "in vivo, mouse", "details": "PO 10 mg/kg DPTIP equivalent"}, "[4]": {"assay": "In vitro metabolic stability in CES1−/− mouse liver homogenate", "type": "in vitro ADME", "details": "C57BL/6, mouse"}, "[5]": {"assay": "Single time-point", "type": "in vivo, mouse", "details": "CES1−/− mice, PO 10 mg/kg DPTIP equivalent, 2 h post dose"}, "[6]": {"type": "in vivo, mouse", "details": "high resolution mass spectrometry, after oral dosing"}, "[7]": {"target": "T1, nSMase2 (Mus musculus, UniProt Q9JJY3)", "T1 sequence (Q9JJY3 1-655)": "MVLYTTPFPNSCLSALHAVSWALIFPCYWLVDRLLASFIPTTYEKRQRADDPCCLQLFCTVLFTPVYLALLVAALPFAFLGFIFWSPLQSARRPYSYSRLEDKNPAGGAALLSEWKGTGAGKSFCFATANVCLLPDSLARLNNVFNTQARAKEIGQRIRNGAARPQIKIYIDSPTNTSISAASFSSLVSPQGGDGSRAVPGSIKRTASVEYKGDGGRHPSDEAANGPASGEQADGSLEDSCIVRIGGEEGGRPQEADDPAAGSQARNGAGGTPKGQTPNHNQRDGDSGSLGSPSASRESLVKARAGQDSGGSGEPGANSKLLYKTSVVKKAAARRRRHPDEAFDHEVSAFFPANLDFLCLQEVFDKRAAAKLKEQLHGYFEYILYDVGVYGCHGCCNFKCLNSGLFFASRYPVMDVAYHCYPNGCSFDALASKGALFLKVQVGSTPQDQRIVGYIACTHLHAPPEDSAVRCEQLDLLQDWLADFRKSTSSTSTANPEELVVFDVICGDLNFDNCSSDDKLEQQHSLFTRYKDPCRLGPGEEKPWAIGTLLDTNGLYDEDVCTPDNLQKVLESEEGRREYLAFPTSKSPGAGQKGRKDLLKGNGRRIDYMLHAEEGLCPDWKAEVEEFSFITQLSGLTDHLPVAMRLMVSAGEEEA", "assay": "nSMase2 activity in striata of IL-1β-injected mice", "type": "in vivo", "details": "PO 3 and 10 mg/kg DPTIP equivalent, dose dependent, 4 h post IL-1β"}, "[8]": {"details": "rats, dose dependent; cited from earlier work"}}, "data": [{"smiles": "COc1cc(-c2nc(-c3ccccc3)c(-c3cccs3)[nH]2)cc(OC)c1OC(=O)N1CCC(N2CCCCC2)CC1", "note": "[Compound P1, 2,6-Dimethoxy-4-(4-phenyl-5-(thiophen-2-yl)-1H-imidazol-2-yl)phenyl [1,4’-bipiperidine]-1’-carboxylate]", "values": [{"measurement": "remaining at 1 h, 10 μM", "setting": "[1]; brain homogenate", "value": "≥ 50", "unit": "%"}, {"measurement": "remaining at 1 h, 10 μM", "setting": "[2]; plasma", "value": "> 75", "unit": "%"}, {"measurement": "AUC0-t of intact prodrug in brain", "setting": "[3]", "value": 494.6, "unit": "pmol·h/g"}, {"measurement": "remaining at 1 h, 10 μM", "setting": "[4]; tissue homogenate", "value": "> 75", "unit": "%"}]}, {"smiles": "CCCCCC(=O)Oc1c(OC)cc(-c2nc(-c3ccccc3)c(-c3cccs3)[nH]2)cc1OC", "note": "[Compound P2, 2,6-Dimethoxy-4-(4-phenyl-5-(thiophen-2-yl)-1H-imidazol-2-yl)phenyl hexanoate]", "values": [{"measurement": "remaining at 1 h, 10 μM", "setting": "[1]; CES1−/− mouse brain homogenate", "value": "≥ 50", "unit": "%"}, {"measurement": "remaining at 1 h, 10 μM", "setting": "[2]; CES1−/− mouse plasma", "value": "< 30", "unit": "%"}, {"measurement": "remaining at 1 h, 10 μM", "setting": "[4]; CES1−/− mouse liver homogenate", "value": "< 25", "unit": "%"}]}, {"smiles": "COc1cc(-c2nc(-c3ccccc3)c(-c3cccs3)[nH]2)cc(OC)c1OC(C)=O", "note": "[Compound P3, 2,6-Dimethoxy-4-(4-phenyl-5-(thiophen-2-yl)-1H-imidazol-2-yl)phenyl acetate]", "values": [{"measurement": "Stability in mouse (% remaining at 1 h) Brain", "setting": "[1]; CES1−/− mouse brain homogenate", "value": "completely metabolized"}, {"measurement": "remaining at 1 h, 10 μM", "setting": "[2]; CES1−/− mouse plasma", "value": "< 30", "unit": "%"}, {"measurement": "remaining at 1 h, 10 μM", "setting": "[4]; CES1−/− mouse liver homogenate", "value": "< 25", "unit": "%"}]}, {"smiles": "COc1cc(-c2nc(-c3ccccc3)c(-c3cccs3)[nH]2)cc(OC)c1OC(=O)C(C)(C)C", "note": "[Compound P4, 2,6-Dimethoxy-4-(4-phenyl-5-(thiophen-2-yl)-1H-imidazol-2-yl)phenyl pivalate]", "values": [{"measurement": "remaining at 1 h, 10 μM", "setting": "[1]; CES1−/− mouse brain homogenate", "value": "> 75", "unit": "%"}, {"measurement": "remaining at 1 h, 10 μM", "setting": "[2]; CES1−/− mouse plasma", "value": "< 30", "unit": "%"}, {"measurement": "remaining at 1 h, 10 μM", "setting": "[4]; CES1−/− mouse liver homogenate", "value": "< 25", "unit": "%"}]}, {"smiles": "COc1cc(-c2nc(-c3ccccc3)c(-c3cccs3)[nH]2)cc(OC)c1OC(=O)N(C)C", "note": "[Compound P5, 2,6-Dimethoxy-4-(4-phenyl-5-(thiophen-2-yl)-1H-imidazol-2-yl)phenyl dimethylcarbamate]", "values": [{"measurement": "remaining at 1 h, 10 μM", "setting": "[1]; brain homogenate", "value": "> 75", "unit": "%"}, {"measurement": "remaining at 1 h, 10 μM", "setting": "[2]; plasma", "value": "> 75", "unit": "%"}, {"measurement": "remaining at 1 h, 10 μM", "setting": "[4]; tissue homogenate", "value": "> 75", "unit": "%"}]}, {"smiles": "COc1cc(-c2nc(-c3ccccc3)c(-c3cccs3)[nH]2)cc(OC)c1OC(=O)OC(OC(=O)C(C)(C)C)c1ccccc1", "note": "(centres unmarked) [Compound P6, (((2,6-Dimethoxy-4-(4-phenyl-5-(thiophen-2-yl)-1H-imidazol-2-yl)phenoxy)carbonyl)oxy)(phenyl)methyl pivalate]", "values": [{"measurement": "remaining at 1 h, 10 μM", "setting": "[1]; CES1−/− mouse brain homogenate", "value": "≥ 50", "unit": "%"}, {"measurement": "remaining at 1 h, 10 μM", "setting": "[2]; CES1−/− mouse plasma", "value": "> 75", "unit": "%"}, {"measurement": "remaining at 1 h, 10 μM", "setting": "[4]; CES1−/− mouse liver homogenate", "value": "> 75", "unit": "%"}]}, {"smiles": "CCC1CCCC(CC)N1C(=O)Oc1c(OC)cc(-c2nc(-c3ccccc3)c(-c3cccs3)[nH]2)cc1OC", "note": "(centres unmarked) [Compound P10, 2,6-Dimethoxy-4-(5-phenyl-4-(thiophen-2-yl)-1H-imidazol-2-yl)phenyl 2,6-diethylpiperidine-1-carboxylate]", "values": [{"measurement": "remaining at 1 h, 10 μM", "setting": "[4]; CES1−/− mouse liver homogenate", "value": "> 50", "unit": "%"}]}, {"smiles": "COc1cc(-c2nc(-c3ccccc3)c(-c3cccs3)[nH]2)cc(OC)c1OC(=O)N1C2CCCC1CC2", "note": "[Compound P12, 2,6-Dimethoxy-4-(5-phenyl-4-(thiophen-2-yl)-1H-imidazol-2-yl)phenyl 8-azabicyclo[3.2.1]octane-8-carboxylate]", "values": [{"measurement": "remaining at 1 h, 10 μM", "setting": "[4]; tissue homogenate", "value": "> 75", "unit": "%"}]}, {"smiles": "COc1cc(-c2nc(-c3ccccc3)c(-c3cccs3)[nH]2)cc(OC)c1OC(=O)N1C2CCC1CC(N1CCCCC1)C2", "note": "(centres unmarked) [Compound P13, 2,6-Dimethoxy-4-(5-phenyl-4-(thiophen-2-yl)-1H-imidazol-2-yl)phenyl 3-(piperidin-1-yl)-8-azabicyclo[3.2.1]octane-8-carboxylate]", "values": [{"measurement": "remaining at 1 h, 10 μM", "setting": "[4]; tissue homogenate", "value": "> 75", "unit": "%"}]}, {"smiles": "COc1cc(-c2nc(-c3ccccc3)c(-c3cccs3)[nH]2)cc(OC)c1OCOP(=O)(O)O", "note": "[Compound P15, (2,6-Dimethoxy-4-(4-phenyl-5-(thiophen-2-yl)-1H-imidazol-2-yl)phenoxy) methyl dihydrogen phosphate]", "values": [{"measurement": "Stability in mouse (% remaining at 1 h) Brain", "setting": "[1]; CES1−/− mouse brain homogenate", "value": "completely metabolized"}, {"measurement": "remaining at 1 h, 10 μM", "setting": "[4]; CES1−/− mouse liver homogenate", "value": "< 25", "unit": "%"}]}, {"smiles": "COc1cc(-c2nc(-c3ccccc3)c(-c3cccs3)[nH]2)cc(OC)c1OCOP(=O)(O)OCOC(=O)OC(C)C", "note": "[Compound P16, ((((2,6-Dimethoxy-4-(4-phenyl-5-(thiophen-2-yl)-1H-imidazol-2-yl)phenoxy)methoxy)(hydroxy)phosphoryl)oxy)methyl isopropyl carbonate]", "values": [{"measurement": "remaining at 1 h, 10 μM", "setting": "[1]; CES1−/− mouse brain homogenate", "value": "> 75", "unit": "%"}, {"measurement": "remaining at 1 h, 10 μM", "setting": "[4]; CES1−/− mouse liver homogenate", "value": "< 25", "unit": "%"}]}, {"smiles": "COc1cc(-c2nc(-c3ccccc3)c(-c3cccs3)[nH]2)cc(OC)c1OC(=O)C1=CN(C)C=CC1", "note": "[Compound P17, 2,6-Dimethoxy-4-(4-phenyl-5-(thiophen-2-yl)-1H-imidazol-2-yl)phenyl 1-methyl-1,4-dihydropyridine-3-carboxylate]", "values": [{"measurement": "Brain level of intact prodrug", "setting": "[5]", "value": 3.0, "unit": "nM"}, {"measurement": "Plasma level of intact prodrug", "setting": "[5]", "value": 3.9, "unit": "nM"}, {"measurement": "Putative oxidized pyridinium metabolite in brain and plasma", "setting": "[6]", "value": "negligible quantities"}]}, {"smiles": "CCC1CC(N2CCCCC2)CC(CC)N1C(=O)Oc1c(OC)cc(-c2nc(-c3ccccc3)c(-c3cccs3)[nH]2)cc1OC", "note": "(centres unmarked) [Compound P18, 2,6-Dimethoxy-4-(5-phenyl-4-(thiophen-2-yl)-1H-imidazol-2-yl)phenyl 2’,6’-diethyl-[1,4’-bipiperidine]-1’-carboxylate]", "values": [{"measurement": "Effect on heightened nSMase2 activity in striata caused by IL-1β", "setting": "[7]", "value": "normalized"}, {"measurement": "remaining at 1 h, 10 μM", "setting": "[1]; brain homogenate", "value": "> 75", "unit": "%"}, {"measurement": "remaining at 1 h, 10 μM", "setting": "[2]; plasma", "value": "> 75", "unit": "%"}, {"measurement": "AUC0-t of intact prodrug in brain", "setting": "[3]", "value": 179, "unit": "pmol·h/g"}, {"measurement": "remaining at 1 h, 10 μM", "setting": "[4]; tissue homogenate", "value": "> 75", "unit": "%"}]}, {"smiles": "CC(C)c1cccc(C(C)C)c1OCOP(=O)(O)O", "note": "[fospropofol]", "values": [{"measurement": "Improvement of oral bioavailability", "setting": "[8]", "value": "20–70%"}]}]}
